# Test results taken from the supplement of paper PMC10307832.
# Experiments:
# Test in all cases: relative viability (nuclei count vs DMSO), 5 days (fraction); higher = more cells survive
# BX 795 + Bortezomib = compound: O=C(NCCCNc1nc(Nc2cccc(NC(=O)N3CCCC3)c2)ncc1I)c1cccs1 [BX 795] + CC(C)C[C@H](NC(=O)[C@H](Cc1ccccc1)NC(=O)c1cnccn1)B(O)O [Bortezomib] (partner 0.002 µM)
# Procedure, shortened: (§1)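 Nuclei were stained with Hoechst during a one-step fixation (final 0.05% Triton X-100, 1% formaldehyde, 1 ug/ml Hoechst) carried out 5 days after dosing, then counted on 4× images. The cells, lung cancer lines in 1536-well plates, had been dosed by pin tool the day after seeding with one drug alone or a fixed anchor-drug dose plus five library-drug doses (not always all listed) in √10 steps. Relative viability is the nuclei count in treated wells divided by that in vehicle wells, and each value is the median of duplicate plates.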
# BX 795 + Alpelisib = compound: O=C(NCCCNc1nc(Nc2cccc(NC(=O)N3CCCC3)c2)ncc1I)c1cccs1 [BX 795] + Cc1nc(NC(=O)N2CCC[C@H]2C(N)=O)sc1-c1ccnc(C(C)(C)C(F)(F)F)c1 [Alpelisib] (partner 2 µM)
# Procedure, shortened: as §1
# BX 795 + Phenformin = compound: O=C(NCCCNc1nc(Nc2cccc(NC(=O)N3CCCC3)c2)ncc1I)c1cccs1 [BX 795] + N=C(N)NC(=N)NCCc1ccccc1 [Phenformin] (partner 250 µM)
# Procedure, shortened: as §1
# BX 795 + Pemetrexed = compound: O=C(NCCCNc1nc(Nc2cccc(NC(=O)N3CCCC3)c2)ncc1I)c1cccs1 [BX 795] + Nc1nc2[nH]cc(CCc3ccc(C(=O)N[C@@H](CCC(=O)O)C(=O)O)cc3)c2c(=O)[nH]1 [Pemetrexed] (partner 0.2 µM)
# Procedure, shortened: as §1
# BX 795 + Palbociclib = compound: O=C(NCCCNc1nc(Nc2cccc(NC(=O)N3CCCC3)c2)ncc1I)c1cccs1 [BX 795] + CC(=O)c1c(C)c2cnc(Nc3ccc(N4CCNCC4)cn3)nc2n(C2CCCC2)c1=O [Palbociclib] (partner 0.5 µM)
# Procedure, shortened: as §1
cell line,measurement,setting,value
NCI-H596,relative viability,BX 795 + Bortezomib; first compound 0.04 µM,0.947
same,relative viability,BX 795 + Bortezomib; first compound 0.1265 µM,0.875
same,relative viability,BX 795 + Bortezomib; first compound 0.4 µM,0.999
same,relative viability,BX 795 + Bortezomib; first compound 1.265 µM,1.08
same,relative viability,BX 795 + Alpelisib; first compound 0.04 µM,0.508
same,relative viability,BX 795 + Alpelisib; first compound 0.1265 µM,0.483
same,relative viability,BX 795 + Alpelisib; first compound 0.4 µM,0.546
same,relative viability,BX 795 + Alpelisib; first compound 1.265 µM,0.363
same,relative viability,BX 795 + Phenformin; first compound 0.04 µM,0.681
same,relative viability,BX 795 + Phenformin; first compound 0.1265 µM,0.802
same,relative viability,BX 795 + Phenformin; first compound 0.4 µM,0.805
same,relative viability,BX 795 + Phenformin; first compound 1.265 µM,0.887
same,relative viability,BX 795 + Pemetrexed; first compound 0.04 µM,0.464
same,relative viability,BX 795 + Pemetrexed; first compound 0.1265 µM,0.476
same,relative viability,BX 795 + Pemetrexed; first compound 0.4 µM,0.456
same,relative viability,BX 795 + Pemetrexed; first compound 1.265 µM,0.527
NCI-H727,relative viability,BX 795 + Palbociclib; first compound 0.04 µM,0.634
same,relative viability,BX 795 + Palbociclib; first compound 0.1265 µM,0.61
same,relative viability,BX 795 + Palbociclib; first compound 0.4 µM,0.67
same,relative viability,BX 795 + Palbociclib; first compound 1.265 µM,0.696
same,relative viability,BX 795 + Bortezomib; first compound 0.04 µM,1.05
same,relative viability,BX 795 + Bortezomib; first compound 0.1265 µM,0.962
same,relative viability,BX 795 + Bortezomib; first compound 0.4 µM,0.926
same,relative viability,BX 795 + Bortezomib; first compound 1.265 µM,0.739
same,relative viability,BX 795 + Alpelisib; first compound 0.04 µM,0.577
same,relative viability,BX 795 + Alpelisib; first compound 0.1265 µM,0.763
same,relative viability,BX 795 + Alpelisib; first compound 0.4 µM,0.583
same,relative viability,BX 795 + Alpelisib; first compound 1.265 µM,0.376
same,relative viability,BX 795 + Phenformin; first compound 0.04 µM,0.571
same,relative viability,BX 795 + Phenformin; first compound 0.1265 µM,0.566
same,relative viability,BX 795 + Phenformin; first compound 0.4 µM,0.444
same,relative viability,BX 795 + Phenformin; first compound 1.265 µM,0.617
NCI-H1395,relative viability,BX 795 + Palbociclib; first compound 0.04 µM,0.627
same,relative viability,BX 795 + Palbociclib; first compound 0.1265 µM,0.612
same,relative viability,BX 795 + Palbociclib; first compound 0.4 µM,0.426
same,relative viability,BX 795 + Palbociclib; first compound 1.265 µM,0.498
same,relative viability,BX 795 + Alpelisib; first compound 0.04 µM,1.3
same,relative viability,BX 795 + Alpelisib; first compound 0.1265 µM,0.956
same,relative viability,BX 795 + Alpelisib; first compound 0.4 µM,0.663
same,relative viability,BX 795 + Alpelisib; first compound 1.265 µM,0.809
same,relative viability,BX 795 + Phenformin; first compound 0.04 µM,0.471
same,relative viability,BX 795 + Phenformin; first compound 0.1265 µM,0.462
same,relative viability,BX 795 + Phenformin; first compound 0.4 µM,0.458
same,relative viability,BX 795 + Phenformin; first compound 1.265 µM,0.431
same,relative viability,BX 795 + Pemetrexed; first compound 0.04 µM,0.675
same,relative viability,BX 795 + Pemetrexed; first compound 0.1265 µM,0.872
same,relative viability,BX 795 + Pemetrexed; first compound 0.4 µM,0.407
same,relative viability,BX 795 + Pemetrexed; first compound 1.265 µM,0.626
NCI-H1563,relative viability,BX 795 + Bortezomib; first compound 0.04 µM,0.822
same,relative viability,BX 795 + Bortezomib; first compound 0.1265 µM,0.844
same,relative viability,BX 795 + Bortezomib; first compound 0.4 µM,0.993
same,relative viability,BX 795 + Bortezomib; first compound 1.265 µM,0.752
same,relative viability,BX 795 + Alpelisib; first compound 0.04 µM,0.964
same,relative viability,BX 795 + Alpelisib; first compound 0.1265 µM,0.859
same,relative viability,BX 795 + Alpelisib; first compound 0.4 µM,0.917
same,relative viability,BX 795 + Alpelisib; first compound 1.265 µM,0.811
same,relative viability,BX 795 + Phenformin; first compound 0.04 µM,0.679
same,relative viability,BX 795 + Phenformin; first compound 0.1265 µM,0.641
same,relative viability,BX 795 + Phenformin; first compound 0.4 µM,0.744
same,relative viability,BX 795 + Phenformin; first compound 1.265 µM,0.567
same,relative viability,BX 795 + Pemetrexed; first compound 0.04 µM,0.977
same,relative viability,BX 795 + Pemetrexed; first compound 0.1265 µM,0.759
same,relative viability,BX 795 + Pemetrexed; first compound 0.4 µM,0.857
same,relative viability,BX 795 + Pemetrexed; first compound 1.265 µM,0.746
NCI-H1650,relative viability,BX 795 + Palbociclib; first compound 0.04 µM,0.394
same,relative viability,BX 795 + Palbociclib; first compound 0.1265 µM,0.328
same,relative viability,BX 795 + Palbociclib; first compound 0.4 µM,0.319
same,relative viability,BX 795 + Palbociclib; first compound 1.265 µM,0.289
same,relative viability,BX 795 + Bortezomib; first compound 0.04 µM,0.219
same,relative viability,BX 795 + Bortezomib; first compound 0.1265 µM,0.2
same,relative viability,BX 795 + Bortezomib; first compound 0.4 µM,0.189
same,relative viability,BX 795 + Bortezomib; first compound 1.265 µM,0.193
same,relative viability,BX 795 + Phenformin; first compound 0.04 µM,0.484
same,relative viability,BX 795 + Phenformin; first compound 0.1265 µM,0.417
same,relative viability,BX 795 + Phenformin; first compound 0.4 µM,0.393
same,relative viability,BX 795 + Phenformin; first compound 1.265 µM,0.239
same,relative viability,BX 795 + Pemetrexed; first compound 0.04 µM,0.392
same,relative viability,BX 795 + Pemetrexed; first compound 0.1265 µM,0.431
same,relative viability,BX 795 + Pemetrexed; first compound 0.4 µM,0.243
same,relative viability,BX 795 + Pemetrexed; first compound 1.265 µM,0.416
